# Laboratory results published in US8192962B2, “Processes for detecting toxic substances” (Daikin Industries, Ltd., priority 2001, dated 2012).
# Test system: Metabolism protein genes
# Test: DNA chip mRNA expression in yeast, metabolism protein genes (Table 7)
# Type: cell-based, Saccharomyces cerevisiae S288C
# Summary of the method: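 Whole-genome yeast DNA chip hybridization (65° C., >12 h) of Cy-labeled cDNA from S288C cells exposed 2 h at 25° C. to a sub-lethal toxicant dose in YPD; value is intensity relative to chemical-free control.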
compound,measurement,setting,value
"CN(C)C(=S)SSC(=S)N(C)C [(10), Tetramethylthiuram disulfide]",The level of expressed mRNA in the presence of chemical substance/The level of expressed mRNA in the absence of chemical substance,yeast gene YAL012W,3.9
same,The level of expressed mRNA in the presence of chemical substance/The level of expressed mRNA in the absence of chemical substance,yeast gene YAL038W,1.1
same,The level of expressed mRNA in the presence of chemical substance/The level of expressed mRNA in the absence of chemical substance,yeast gene YAL044C,0.6
same,The level of expressed mRNA in the presence of chemical substance/The level of expressed mRNA in the absence of chemical substance,yeast gene YAL054C,4.1
same,The level of expressed mRNA in the presence of chemical substance/The level of expressed mRNA in the absence of chemical substance,yeast gene YAR071W,0.3
same,The level of expressed mRNA in the presence of chemical substance/The level of expressed mRNA in the absence of chemical substance,yeast gene YBL001C,0.9
same,level of expressed mRNA in the presence/in the absence of chemical substance,yeast gene YBR003W,1.3
same,level of expressed mRNA in the presence/in the absence of chemical substance,yeast gene YBR011C,1.0
same,The level of expressed mRNA in the presence of chemical substance/The level of expressed mRNA in the absence of chemical substance,yeast gene YBR014C,0.8
same,level of expressed mRNA in the presence/in the absence of chemical substance,yeast gene YBR020W,1.1
same,The level of expressed mRNA in the presence of chemical substance/The level of expressed mRNA in the absence of chemical substance,yeast gene YBR023C,0.4
same,The level of expressed mRNA in the presence of chemical substance/The level of expressed mRNA in the absence of chemical substance,yeast gene YBR029C,1.1
same,The level of expressed mRNA in the presence of chemical substance/The level of expressed mRNA in the absence of chemical substance,yeast gene YBR035C,1.5
same,The level of expressed mRNA in the presence of chemical substance/The level of expressed mRNA in the absence of chemical substance,yeast gene YBR068C,2.5
same,The level of expressed mRNA in the presence of chemical substance/The level of expressed mRNA in the absence of chemical substance,yeast gene YBR111C,1.9
same,The level of expressed mRNA in the presence of chemical substance/The level of expressed mRNA in the absence of chemical substance,yeast gene YBR183W,2.0
same,The level of expressed mRNA in the presence of chemical substance/The level of expressed mRNA in the absence of chemical substance,yeast gene YBR222C,1.0
same,The level of expressed mRNA in the presence of chemical substance/The level of expressed mRNA in the absence of chemical substance,yeast gene YBR256C,6.8
same,The level of expressed mRNA in the presence of chemical substance/The level of expressed mRNA in the absence of chemical substance,yeast gene YBR296C,1.8
same,The level of expressed mRNA in the presence of chemical substance/The level of expressed mRNA in the absence of chemical substance,yeast gene YCL009C,1.6
same,The level of expressed mRNA in the presence of chemical substance/The level of expressed mRNA in the absence of chemical substance,yeast gene YCL064C,5.2
same,level of expressed mRNA in the presence/in the absence of chemical substance,yeast gene YCR010C,4.7
same,level of expressed mRNA in the presence/in the absence of chemical substance,yeast gene YCR034W,0.2
same,The level of expressed mRNA in the presence of chemical substance/The level of expressed mRNA in the absence of chemical substance,yeast gene YCR048W,0.5
same,The level of expressed mRNA in the presence of chemical substance/The level of expressed mRNA in the absence of chemical substance,yeast gene YCR098C,2.4
same,The level of expressed mRNA in the presence of chemical substance/The level of expressed mRNA in the absence of chemical substance,yeast gene YDR019C,0.7
same,level of expressed mRNA in the presence/in the absence of chemical substance,yeast gene YDR050C,1.3
same,level of expressed mRNA in the presence/in the absence of chemical substance,yeast gene YDR073W,1.2
same,level of expressed mRNA in the presence/in the absence of chemical substance,yeast gene YDR123C,0.6
same,level of expressed mRNA in the presence/in the absence of chemical substance,yeast gene YDR178W,0.8
same,level of expressed mRNA in the presence/in the absence of chemical substance,yeast gene YDR277C,0.9
same,level of expressed mRNA in the presence/in the absence of chemical substance,yeast gene YDR284C,1.0
same,level of expressed mRNA in the presence/in the absence of chemical substance,yeast gene YDR345C,1.1
same,The level of expressed mRNA in the presence of chemical substance/The level of expressed mRNA in the absence of chemical substance,yeast gene YDR380W,0.3
same,level of expressed mRNA in the presence/in the absence of chemical substance,yeast gene YDR400W,1.4
same,level of expressed mRNA in the presence/in the absence of chemical substance,yeast gene YDR408C,0.5
same,level of expressed mRNA in the presence/in the absence of chemical substance,yeast gene YDR483W,1.1
same,The level of expressed mRNA in the presence of chemical substance/The level of expressed mRNA in the absence of chemical substance,yeast gene YDR497C,0.8
same,The level of expressed mRNA in the presence of chemical substance/The level of expressed mRNA in the absence of chemical substance,yeast gene YDR502C,0.9
same,The level of expressed mRNA in the presence of chemical substance/The level of expressed mRNA in the absence of chemical substance,yeast gene YDR516C,5.2
same,level of expressed mRNA in the presence/in the absence of chemical substance,yeast gene YEL063C,1.7
same,level of expressed mRNA in the presence/in the absence of chemical substance,yeast gene YER015W,0.9
same,The level of expressed mRNA in the presence of chemical substance/The level of expressed mRNA in the absence of chemical substance,yeast gene YER026C,1.5
same,The level of expressed mRNA in the presence of chemical substance/The level of expressed mRNA in the absence of chemical substance,yeast gene YER053C,3.9
same,The level of expressed mRNA in the presence of chemical substance/The level of expressed mRNA in the absence of chemical substance,yeast gene YER069W,10.4
same,level of expressed mRNA in the presence/in the absence of chemical substance,yeast gene YER081W,1.1
same,The level of expressed mRNA in the presence of chemical substance/The level of expressed mRNA in the absence of chemical substance,yeast gene YER096W,3.5
same,level of expressed mRNA in the presence/in the absence of chemical substance,yeast gene YER120W,0.9
same,The level of expressed mRNA in the presence of chemical substance/The level of expressed mRNA in the absence of chemical substance,yeast gene YER178W,1.3
same,level of expressed mRNA in the presence/in the absence of chemical substance,yeast gene YFL011W,1.6
